Key:
Assay type in all cases: in vivo, C57/BL6 male mice
[1] = test system: mice treated with methionine-choline deficient diet (MCDD); assay: Plasma ALT measurement in MCD diet steatohepatitis mice; conditions: MCD diet together with 100 mg/kg/day, 6 weeks, vs MCDD group, FIG. 1
Protocol: (§1) A methionine-choline deficient (MCD) feed to induce steatohepatitis was purchased from Dyets (Bethlehem, Pa., USA). Alkoxy glycerol (batyl alcohol), as a plasmalogen precursor, was purchased from Sigma (St Louis, Mo., USA).
(§2) 2% BSA was prepared in a DMEM:F12 medium, and plasmalogen precursor alkoxy glycerol dissolved in ethanol was added thereto After incubation at 70° C. for 20 minutes, the mixture was inoculated in a manner of observing crystal disappearance. 7-week-old C57/BL6 male mice were brought in to an experimental animal room, stabilized for 7 days, and then separated into a general feed group, as a control group, an MCD diet group (an MCDD group), and a group taken a mixture of MCD diet and 100 mg/kg/day of plasmalogen precursor alkoxy glycerol (an AG group), where each of the groups had six mice. The test feeds were taken for the total of 6 weeks, and the mice were allowed to only take water for the following 12 hours. Then, blood samples were obtained from the mice, and liver tissues were harvested from each of the mice. […]
Blood samples were obtained from venae cavae of the experimental animals, the plasma was separated from the blood samples by using a centrifuge (at 300 rpm for 15 minutes), and alanine aminotransferase (ALT) of the plasma was measured by using a kit of Labs Biotechnology (London, Canada). […]

[2] = test system: mice treated with methionine-choline deficient diet (MCDD); assay: Neutral fats (triglyceride) in liver tissue of MCD diet mice; conditions: MCD diet together with 100 mg/kg/day, 6 weeks, FIG. 2
Protocol: as §1, §2
Neutral fats in the liver tissue was measured by using a triglyceride (GPO-Trinder) kit purchased from Sigma. […] Then, a triglyceride reagent A was added thereto, allowed to react at room temperature for 5 minutes, and the measurement was performed by using an Emax precision micro plate reader (Molecular Devices, Sunnyvale, Calif.) at 540 nm.

[3] = test system: tumor necrosis factor (TNF-α) and monocyte chemotactic protein-1 (MCP-1) gene expression; assay: Inflammatory cytokine gene expression in liver tissue by real-time PCR, MCD diet mice; conditions: MCD diet with 100 mg/kg/day, 6 weeks, FIG. 3
Protocol: as §1
(§3) 2% BSA was prepared in a DMEM:F12 medium, and plasmalogen precursor alkoxy glycerol dissolved in ethanol was added thereto After incubation at 70° C. for 20 minutes, the mixture was inoculated in a manner of observing crystal disappearance. 7-week-old C57/BL6 male mice were brought in to an experimental animal room, stabilized for 7 days, and then separated into a general feed group, as a control group, an MCD diet group (an MCDD group), and a group taken a mixture of MCD diet and 100 mg/kg/day of plasmalogen precursor alkoxy glycerol (an AG group), where each of the groups had six mice. The test feeds were taken for the total of 6 weeks, and the mice were allowed to only take water for the following 12 hours. Then, blood samples were obtained from the mice, and liver tissues were harvested from each of the mice. The harvested liver tissues were instantly rapid-frozen in dry ice and stored with plasma in a freezer at −70° C.
In order to confirm change in an inflammation degree of liver tissues, gene expression of a tumor necrosis factor (TNF-α) and monocyte chemotactic protein-1 (MCP-1), which are typical inflammatory cytokines, were confirmed by real-time PCR.

[4] = test system: mice treated with methionine-choline deficient diet (MCDD); assay: Liver histological observation (H&E, trichrome C), MCD diet mice; conditions: FIG. 4
Protocol: as §1
as §3, with “−70° C. […]” for “−70° C.”
The segment was died with hematoxylin-eosin (H&E) and trichrome C, and examined and analyzed by using an optical microscope.

[5] = test system: mice that were allowed to take high fat diet (HFD); assay: High fat diet (HFD) hepatic steatosis animal model; conditions: HFD mixed with 200 mg/kg/day (AG-200), 12 weeks, FIG. 6
Text: Although a MCDD animal model is a model that represents nonalcoholic steatohepatitis occurrence, the MCDD animal model cannot represent a risk factor that accompanies metabolic syndrome. In order to overcome such limitation, liver tissues of mice that were allowed to take high fat diet (HFD) as a general animal model with respect to hepatic steatosis were used for the comparison.
The animal model only had simple hepatic steatosis without inflammation unlike the MCDD group.
Alkoxy glycerol, as a plasmalogen precursor, was added to the HFD feed that induces obesity and non-alcoholic hepatic steatosis, and the feed was administrated to the animal model, and the change was confirmed.
First, the control group (CON) was prepared by allowing 7-week-old C57/BL6 male mice to take a general feed including 7% of fat, 18% of protein, and 75% of carbohydrate, and the HFD group was prepared by allowing 7-week-old C57/BL6 male mice to freely take a HFD feed including 60% of fat, 18% of protein, and 22% of carbohydrate.
Also, the AG group (AG-200) was allowed to take the HFD mixed with 200 mg/kg/day of alkoxy glycerol. The experimental groups were allowed to take the corresponding feeds for the total of 12 weeks, and liver histological changes in the livers were confirmed in the same manner in Example 4, and the plasma ALT levels were confirmed in the same manner as in Example 1.

SMILES: CCCCCCCCCCCCCCCCCCOCC(O)CO (centres unmarked) [alkoxy glycerol, batyl alcohol]
- change in plasma ALT [1]: significantly improvement
- change in amount of neutral fats of liver tissues [2]: significantly improvement
- expression of inflammatory cytokine genes (TNF-α, MCP-1) in liver tissue [3]: suppressed expression of inflammatory cytokine genes
- steatohepatitis, H&E and trichrome C histology ([4]; MCD diet with 100 mg/kg/day, 6 weeks): relieved to the similar level with that of the control group
- liver fibrosis ([4]; MCDD together with alkoxy glycerol): significant improvement
- hepatic steatosis occurrence (liver histology) [5]: significant improvement
- lipid content in the liver tissues [5]: significant improvement
- plasma ALT level [5]: remarkable reduction

— patent publication US20160263130A1, “PHARMACEUTICAL COMPOSITION FOR PREVENTING OR TREATING LIVER DISEASES, CONTAINING PLASMALOGEN PRECURSOR, PLASMALOGEN OR PLASMALOGEN ANALOG AS EFFECTIVE COMPONENT” (UNIVERSITY OF ULSAN FOUNDATION FOR INDUSTRY COOPERATION, priority 2013, published 2016)
